Among the data in ChEMBL document CHEMBL1146881, “Improved replicon cellular activity of non-nucleoside allosteric inhibitors of HCV NS5B polymerase: from benzimidazole to indole scaffolds” (Bioorg Med Chem Lett, 2006) are EC50, IC50 and Activity values, retold here.

The structures appear in SMILES notation. Activity calls are given as the source filed them. The rule behind the calls is not given here. A value given as a limit tells only on which side of the number the result lay.

One assay deals with Hepatitis C virus. The experiment in a line: Inhibition of HCV RNA replication by replicon assay. The format is functional, organism-based, Hepacivirus hominis. Particulars: for Activity: Hepacivirus hominis. A general note: Replicon systems follow genome replication, usually without infectious particles.
The target of assay [1] is RNA-directed RNA polymerase (Hepacivirus hominis, UniProt O39930). The experiment in a line: Inhibition of HCV 1b NS5B delta21 RNA dependent RNA polymerase by SPA. The arrangement: species or system Hepatitis C virus subtype 1b.
In another assay the target is Genome polyprotein (Human poliovirus 1 Mahoney, UniProt P03300). Put plainly: Inhibition of poliovirus RNA dependent RNA polymerase. More on the design: species or system Enterovirus C.
Sequence of Genome polyprotein (P03300 1749-2209 limits assumed): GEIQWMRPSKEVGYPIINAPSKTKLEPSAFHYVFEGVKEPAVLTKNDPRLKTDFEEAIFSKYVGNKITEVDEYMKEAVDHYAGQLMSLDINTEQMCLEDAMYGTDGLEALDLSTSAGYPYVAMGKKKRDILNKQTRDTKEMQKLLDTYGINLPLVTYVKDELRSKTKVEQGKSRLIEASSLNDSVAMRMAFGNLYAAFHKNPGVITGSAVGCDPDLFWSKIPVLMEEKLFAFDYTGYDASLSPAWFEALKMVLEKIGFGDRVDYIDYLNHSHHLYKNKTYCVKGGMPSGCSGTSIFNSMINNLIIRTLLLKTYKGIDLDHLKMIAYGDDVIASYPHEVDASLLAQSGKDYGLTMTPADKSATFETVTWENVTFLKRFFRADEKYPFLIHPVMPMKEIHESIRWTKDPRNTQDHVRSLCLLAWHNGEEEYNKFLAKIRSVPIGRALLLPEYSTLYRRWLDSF

Sequence of RNA-directed RNA polymerase (O39930 whole entry): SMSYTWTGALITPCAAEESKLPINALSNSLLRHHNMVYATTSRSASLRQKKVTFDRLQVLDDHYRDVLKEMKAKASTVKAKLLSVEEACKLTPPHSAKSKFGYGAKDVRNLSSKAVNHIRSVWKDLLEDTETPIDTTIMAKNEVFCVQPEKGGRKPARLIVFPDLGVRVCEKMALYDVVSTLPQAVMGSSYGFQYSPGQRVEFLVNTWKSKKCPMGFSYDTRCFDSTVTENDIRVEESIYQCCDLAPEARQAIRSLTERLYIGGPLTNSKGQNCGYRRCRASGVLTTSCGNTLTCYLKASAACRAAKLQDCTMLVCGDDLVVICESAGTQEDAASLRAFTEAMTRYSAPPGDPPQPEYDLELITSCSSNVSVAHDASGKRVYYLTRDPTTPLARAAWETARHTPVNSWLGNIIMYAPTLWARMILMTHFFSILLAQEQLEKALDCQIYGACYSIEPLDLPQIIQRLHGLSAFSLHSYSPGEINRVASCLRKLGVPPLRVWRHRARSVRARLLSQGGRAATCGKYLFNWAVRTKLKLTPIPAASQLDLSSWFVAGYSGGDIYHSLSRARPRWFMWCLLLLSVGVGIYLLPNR

Usually EC50 stands for the concentration needed to bring the measured effect to its halfway point. Higher therefore signals a less potent agent. Usually IC50 stands for the concentration needed to halve the response being measured. A high value points to weaker potency in that assay. In the assay with Hepatitis C virus, `Cn1c(-c2ccccn2)c(C2CCCCC2)c2ccc(C(=O)O)cc21` came in with a 50% effective concentration (EC50) of 3900 nM. Further, in assay [1], half-maximal inhibition (IC50) required 90 nM.
Taken in the same sequence, the figures for `Cn1c(-c2ccccc2)c(C2CCCCC2)c2ccc(C(=O)O)cc21` were 6600 nM and 30 nM.
Take `O=C(O)c1ccc2c(c1)nc(-c1ccccn1)n2C1CCCCC1`: the result in the assay with Hepatitis C virus was inactive. The compound further returned an IC50 in assay [1] of 2700 nM.
In the assay on Hepatitis C virus, `Cn1c(-c2ccoc2)c(C2CCCC2)c2ccc(C(=O)O)c(O)c21` came in with an EC50 of 19000 nM. This compound gave an IC50 in assay [1] of 75 nM.
Taken in the same sequence, the figures for `O=C(O)c1ccc2c(C3CCCC3)c(-c3ccoc3)sc2c1` were 22000 nM and 78 nM.
For `O=C(O)c1ccc2c(C3CCCC3)c(-c3ccoc3)[nH]c2c1`, in that order: 6600 nM and 25 nM.
Compound `O=C(O)/C=C/c1cc(C2CCCCC2)c(-c2ccccn2)[nH]1` gave an IC50 in assay [1] greater than 50000 nM.
For `Cn1c(-c2ccoc2)c(C2CCCC2)c2ccc(C(=O)O)c(Cl)c21`, in the assay with Hepatitis C virus, the EC50 is 37000 nM. This compound also showed an IC50 in assay [1] of 290 nM.
For `O=C(O)c1ccc2c(c1)S(=O)(=O)C(c1ccoc1)=C2C1CCCC1`, the IC50 in assay [1] was greater than 100000 nM.
Consider `O=C(O)c1ccc2c(C3CCCCC3)c(-c3ccoc3)[nH]c2c1`, for which the EC50 in the assay with Hepatitis C virus came out at 6700 nM. The IC50 is greater than 125000 nM against Genome polyprotein and 30 nM in assay [1].
In turn, `Cc1c(-c2ccoc2)n(C2CCCCC2)c2ccc(C(=O)O)cc12` registered an EC50 in the assay with Hepatitis C virus greater than 10000 nM. Besides, the IC50 in assay [1] turned out to be 44 nM.
For `Cn1c(-c2ccccc2)c(C2CCCCC2)c2ccc(C(=O)O)nc21`, in that order: 2200 nM and 80 nM.
Turning to `O=C(O)c1ccc2c(c1)nc(-c1ccoc1)n2C1CCCC1`, the result with Hepatitis C virus was inactive. In assay [1], this compound yielded an IC50 of 2200 nM.
Take `COc1c(C(=O)O)ccc2c(C3CCCC3)c(-c3ccoc3)n(C)c12`: the EC50 in the assay with Hepatitis C virus stood at 40000 nM. Moreover, half-maximal inhibition in assay [1] (IC50) required 340 nM.
Turning to `O=C(O)c1ccc2c(c1)nc(-c1ccoc1)n2C1CCCCC1`, the outcome with Hepatitis C virus was inactive. For the same compound, the midpoint of inhibition in assay [1], the IC50, lay at 1100 nM.
For `O=C(O)c1ccc2c(c1)nc(-c1ccccc1)n2C1CCCCC1`, in that order: “inactive” and 3100 nM.
`O=C(O)c1ccc2c(C3CCCC3)c(-c3ccoc3)oc2c1` yielded a concentration for a half-maximal effect (EC50) in the assay with Hepatitis C virus of 21000 nM. For the same compound, the IC50 in assay [1] was 81 nM.
`COC(=O)c1c(C(=O)O)ccc2c(C3CCCC3)c(-c3ccoc3)n(C)c12` had an EC50 with Hepatitis C virus of 22000 nM. The compound also had an IC50 in assay [1] of 480 nM.
For `Cc1c(-c2ccccn2)n(C2CCCCC2)c2ccc(C(=O)O)cc12`, in that order: greater than 10000 nM and 820 nM.
Turning to `Cn1c(-c2ccoc2)c(C2CCCC2)c2ccc(C(=O)O)c(C(=O)O)c21`, in assay [1], the IC50 stood at 5300 nM.
As for `Cn1c(-c2ccoc2)c(C2CCCC2)c2ccc(C(=O)O)cc21`, in the assay on Hepatitis C virus, a half-maximal response (EC50) required 6600 nM. The same compound registered an IC50 in assay [1] of 21 nM.
`Cn1c(-c2ccoc2)c(C2CCCCC2)c2ccc(C(=O)O)nc21` registered an IC50 in assay [1] of 51 nM.
In the assay with Hepatitis C virus, `O=C(O)c1ccc2c(C3CCCCC3)c(-c3ccccc3)[nH]c2c1` came in with an EC50 greater than 10000 nM. This compound yielded an IC50 in assay [1] of 50 nM.
Regarding `O=C(O)/C=C/c1cc(-c2ccccn2)n(C2CCCCC2)n1`, in assay [1], the IC50 is greater than 100000 nM.
On to `Cn1c(-c2ccoc2)c(C2CCCCC2)c2ccc(C(=O)O)cc21`, for which the EC50 in the assay on Hepatitis C virus was 4200 nM. The IC50 turned out to be 125000 nM against Genome polyprotein and 16 nM in assay [1].
With `Cc1c(-c2ccccc2)n(C2CCCCC2)c2ccc(C(=O)O)cc12`, in the assay with Hepatitis C virus, the EC50 was greater than 10000 nM. The IC50 in assay [1] is 180 nM.
Taken in the same sequence, the figures for `O=C(O)c1ccc2c(C3CCCCC3)c(-c3ccccn3)[nH]c2c1` were greater than 10000 nM and 230 nM.
